Data set [1] deals with methicillin-resistant Staphylococcus aureus (MRSA). Description: Bacterial association assay on Caco-2 host cells, MRSA. Type of data set: cell-based. On the procedure: (§1) Enterohaemorrhagic Escherichia coli O157H;7 (EHEC) and methicillin-resistant Staphyloccuus aureus (MRSA) were grown at 37° C. with continuous shaking for 14-16 h.
(§2) Caco-2 cells were seeded into 24-well plates at 5×10^5 cells per well. Wells were designated as control (Row 1) or treated with kifunensine (Row 2). For adhesion, the left half of the plate was infected with logarithmically growing enterohaemorrhagic Escherichia coli O157:H7 (EHEC), and the right half of the plate was infected with methicillin-resistant Staphylocaccus aureus (MRSA). Triplicate setups were prepared for each condition. After 2 h, the wells were washed 3× with PBS and the adherent cell counts were determined by serial dilutions and spotting of the lysate generated upon treatment of the wells with, PBS/0.5% Triton for 5 min. CFU are expressed per mL as a comparison between the different treatments. For measuring uptake, the duplicate plate was similarly infected with EHEC and MRSA. Two hours post-infection, the unbound bacteria were washed with PBS (3×) and the Caco-2-cells were treated with media containing 100 μg/mL gentamicin to lyse cell surface associated bacteria. Following a 2 h-treatment, the internalized bacterial cell counts were derived upon lysing the Caco-2 cells with PBS/0.5% Triton followed by serial dilution and CFU counts.

In data set [2] the test system is Caco-2 cells. Description: Permeability assay, FITC-dextran passage through Caco-2 monolayer. The note with it: 100 μg/mL treatment, after 2 h, untreated to treated, n=4. The class given is cell-based, Human. As to the method: Caco-2 cells were seeded on porous polycarbonate filter membranes (3401; Corning, NY) until cells formed a single monolayer and were fully differentiated. Kifunensine (Carbosynth, CA) was added post-differeniation for 72 h. Four replicates were prepared for both control and kifunensine-treated cases. Permeability experiments were performed in Hank's Balanced Salt Solution, prepared with 25 mM HEPES, 0.35 g/L sodium bicarbonate, and adjusted to pH 7.4 with sodium hydroxide. The prepared membranes were washed and inserted into a new micro-well plate. FITC-dextran (4 kDa) (Sigma-Aldrich, MO) was introduced to the upper (apical) chamber at 10 mg/mL. The plate was placed in a 37° C. incubator devoid of CO2 for 2 h on an orbital shaker at 100 rpm. The amount of FITC-dextran that transferred through the cells was measured in the lower (basolateral) chamber by fluorescence at 492/520 nm (excitation/emission) using a Perkin Elmer Victor3 Multilabel Plate Reader (Parkin Elmer, MA). The apparent permeability coefficient was determined according to the following equation: [formula] where dQ/dt is the rate of permeation across cells, A is the surface area of the membrane, and C0 is the initial donor concentration. Transepithelial electrical resistance (TEER) values were measured using a Millicell ERS Voltohmmeter (EMD Millipore, MA) at room temperature. Enzyme Activity Assay
On the technique in general: Caco-2 monolayers are a common model of the intestinal barrier.

For data set [3], the system named is enterohaemorrhagic Escherichia coli (EHEC). Description: Bacterial association assay on Caco-2 host cells, EHEC. The class given is cell-based, Escherichia coli O157:H7. On the procedure:
as §1, §2

Data set [4] relates to dipeptidyl peptidase IV (DPP IV). Description: Dipeptidyl peptidase IV activity in membrane fractions of treated Caco-2 cells. The class given is cell-based, Human. The conditions noted are these: membrane fractions of kifunensine-treated cells. As to the method: Dipeptidyl peptidase IV (DPP IV) activity was measured in membrane-enriched fractions using a colorimetric assay per manufacturer's instructions (Enzo Life sciences, NY). Membrane extracts from control and kifunensine-treated cells were incubated with a chromogenic substrate (H-Gly-Pro-pNa) at 25° C. for 30 min. Cleavage of p-nitroaniline (pNA) was monitored by absorbance measurements at […] with a microplate photometer. Enzyme activities were compared to a standard curve generated using a pNA standard. A reaction containing a DPP IV inhibitor (P32/98) was included as a control for enzymatic specificity.

Data set [5] concerns alkaline phosphatase (IAP). Description: Intestinal alkaline phosphatase activity in membrane fractions of treated Caco-2 cells. The class given is cell-based, Human. The note with it: enriched membrane fractions of kifunensine-treated (high mannose rich) cells. On the procedure: Intestinal alkaline phosphatase (IAP) activity was measured in membrane-enriched factions using a colorimetric assay per manufacturer's instructions (Abcam, MA). Cells were incubated with 50 μM p-nitrophenyl phosphate (p-NPP) for 60 min. Dephosphorylated was monitored by the production of p-nitrophenyl, which turns the solution to a visible yellow color. Absorbance readings were taken at 405 nm with a microplate photometer. Enzyme activities were determined with a standard curve generated using IAP enzyme. Activity was measured in U/mL, where a Unit is defined as the amount of enzyme to hydrolyze 1 μmol of p-NPP per minute at 37° C.

Data set [6] has as its system Caco-2 cells. The class given is cell-based. The note with it: Caco-2, kifunensine-treated. As to the method: We examined whether supplementation of free monosacchaides derived from diet changes N-glycosylation outcomes on the intestinal cell-surface at concentrations relevant to physiological conditions. Changes in glycosylation were assessed by globally releasing glycans from membrane proteins extracted from fully differentiated (Caco-2) and partially differentiated (HT-29) intestinal epithelial cells and analyzing the mixture by porous graphitized carbon (PGC)-LC-MS. […] The glycan profile under normal growth conditions was used as a frame of reference with which to compare the glycome at varied environments.
Human colorectal adenocarcinoma Caco-2 cells derived from a person, were obtained from American Type Culture Collection (ATCC, VA) and grown in Eagle's Minimum Essential Medium (EMEM) supplemented with non-essential amino acids, 2 mM L-glutamine, 10% (v/v) fetal bovine serum (Life Technologies, NY), 1 mM sodium pyruvate, 1.5 g/L sodium bicarbonate, 100 U/mL penicillin, and 100 μg/mL streptomycin. Alternatively, Caco-2 cells were grown in Dulbecco's Modified Eagle's Medium (DMEM) supplemented with 10% (v/v) fetal bovine serum, 100 U/mL penicillin, and 100 μg/mL streptomycin. Human colorectal adenocarcinoma HT-29 cells, derived from a person, were obtained from ATCC and grown in McCoy's 5A medium supplemented with 10% (v/v) fetal bovine serum, 100 U/mL penicillin, and 100 μg/mL streptomycin. Cells were subcultured at 80% confluency and maintained at 37° C. in a humidified incubator with 5% CO=2. All treatments were added to the media after cell differentiation. Caco-2 cells were fully differentiated 14-days post-confluency. HT-29 cells were partially differentiated 4-days post-confluency. After 72 h, cells were collected in biological triplicates by scraping A fixed count of 2×10^6 viable cells was used for each experiment Passage number between experiments was controlled to no higher than P40 and a delta P of no more than 20. High passage cells were scraped after P80. Media was renewed three times a week unless specified. Monolayer integrity and quality of cell borders were evaluated under the microscope routinely during growth and before harvest.
In brief harvested cells were resuspended in homogenization buffer containing 0.25 M sucrose, 20 mM HEPES-KOH (pH 7.4), and 1:100 protease inhibitor (EMD Millipore, CA). Cell lysis was performed on ice using a probe sonicator (Qsonica, CT) with five alternating and on and off pulses in 5 and 10 s intervals, respectively. Lysates were […] at 2,000×g for 10 min to remove the nuclear fraction and cellular debris. The supernatant was collected and brought to 1 mL with homogenization buffer for ultracentrifugation at 200,000×g for 45 min at 4° C. The pallet was resuspended and repelleted by ultracentrifugation in 0.2 M Na2CO3 (pH 11) followed by water to fragment the endoplasmic reticulum and remove the cytoplasmic fraction, respectively. The resulting membrane faction was isolated and stored at −20° C. until further processing.
Membrane pellets were resuspended with 100 μL of 100 mM ammonium bicarbonate in 5 mM dithiothreitol and heated for 10 s at 100° C. to thermally denature the proteins. […] After addition of 400 μL of chilled ethanol, samples were placed in −80° C. for 1.5 h and centrifuged for 20 min at 21,130×g to precipitate residual deglycosylated proteins. The supernatant containing the released N-glycans was collected and dried. N-Glycans were purified by solid phase extraction containing a porous graphitized carbon (PGC) matrix. Eluted fractions were dried in vacuo.

Setting [7] is: hyper-mannosylated (kifunensine-treated) Caco-2, within 2 h.

Consider `O=C1N[C@@H]2[C@@H](O)[C@@H](O)[C@H](O)[C@@H](CO)N2C1=O` [kifunensine], for which the “increase in ability of MRSA to adhere to the monolayer” value in data set [1] (setting [7]) is given as more than 5000%. For the same compound, the “more MRSA bacteria able to invade transformed host cells than untreated cells” value in data set [1] (kifunensine-transformed Caco-2) is recorded as “approximately 30%”. The “maximum increase in passage of FITC-D4 from upper to lower chamber” value in the data set with Caco-2 cells [2] was 64%. In data set [3] (Caco-2 rich in high mannose glycans (kifunensine-treated), p=0.0005), the “EHEC uptake in comparison to control cells” value is “significantly reduced”. For the same compound, in data set [3] (setting [7]), the “EHEC binding to the monolayer” value was “did not significantly affect”. In data set [4], the “DPP IV activity change” value is reported as “nearly unaffected”. Further, the “decrease in IAP activity vs unaltered Caco-2 cells” value in data set [5] is reported as approximately 32%. In addition, in the data set on Caco-2 cells [6], the cell viability result is reported as “without affecting viability” and the “conversion of surface glycans into high mannose glycans” value was “nearly complete conversion”.

Source of the values: patent US12055553B2, “Method for diagnosing risk for inflammatory disease through glycan profiling” (The Regents of the University of California, priority 2017, dated 2024).
